# Measurements reported in patent US11306063B2, “Heterocyclic naphthoquinones derivatives for use in the treatment of cancers including Cushing disease” (Commissariat a l'Energie Atomique et aux Energies …, priority 2016, dated 2022).
# Like-named read-outs stand apart in the source and are kept apart here.
# Tests used:
# H1975 cells = experiment: Cytotoxicity assay (PrestoBlue cell viability), H1975; assay type: cell-based, human; conditions: Homo sapiens, NCI-H1975, 48 h
# Protocol: (§1) Messa, Messa DX5, HCT116, HEK-293, PC-3, LNCaP, HCC827 and H1975 cell lines are issued from the American Type Culture Collection (ATCC).
# (§2) For cytotoxicity assays, cells were seeded in 96-well microplates 24 hours before the addition of increasing concentrations of each compound in the culture medium. Cell viability was analyzed 48 hours following addition of each compound through the monitoring of mitochondrial […] activity using PrestoBlue® Cell Viability Reagent (Invitrogen; #A-13261). Paclitaxel was used as a control which is cytotoxic on various cancerous cells although not on chemoresistant MESSA DX5 lineage.
# MESSA cells = experiment: Cytotoxicity assay (PrestoBlue cell viability), MESSA; assay type: cell-based; conditions: Homo sapiens, MES-SA; 48 hours treatment; concentration inducing 50% cell mortality
# Protocol: as §1
# (§3) Messa, Messa DX5 and HCT116 were maintained in McCoy's supplemented with 10% fetal bovine serum, and 1% penicillin/streptomycin. PC-3, LNCaP cells were maintained in RPMI medium supplemented with 10% fetal bovine serum, and 1% penicilin/streptomycin and in the case of Messa DX5: 500 nM Doxorubicin was added to maintain selection pressure. HEK293 were maintained in DMEM medium supplemented with 10% fetal bovine serum, and 1% penicillin/streptomycin. Cells were maintained at 37° C. with 5% CO2, 95% air, and humid atmosphere. In the case of hormonal dependent LNCaP cells, 2 μM DiHydroTestosterone (DHT) was added or not—depending on the type of biological assay—for the same incubation period as compounds.
# as §2
# [1] = target: T1, USP8^CD (purified catalytic domain of USP8) (Homo sapiens, UniProt P40818); experiment: Inhibition of purified USP8^CD enzymatic activity (Ub-AMC or Ub-Rho substrate); assay type: biochemical; conditions: for inhibition at 0.01 µM: 0.01 μM compound; for inhibition at 0.05 µM: 0.05 μM compound; for inhibition at 0.1 µM: 0.1 μM compound; for inhibition at 0.5 µM: 0.5 μM compound; for inhibition at 1 µM: 1 μM compound; for inhibition at 5 µM: 5 μM compound; for inhibition at 10 µM: 10 μM compound; for inhibition at 25 µM: 25 μM compound; for inhibition at 50 µM: 50 μM compound; for IC50: read-out: IC50 USP8 CD
# T1 construct: the purified catalytic domain of USP8 (USP8^CD, in-house purified); made in house; host or cells: E. coli BL21 Gold
# T1 sequence (P40818 777-1109 limits assumed): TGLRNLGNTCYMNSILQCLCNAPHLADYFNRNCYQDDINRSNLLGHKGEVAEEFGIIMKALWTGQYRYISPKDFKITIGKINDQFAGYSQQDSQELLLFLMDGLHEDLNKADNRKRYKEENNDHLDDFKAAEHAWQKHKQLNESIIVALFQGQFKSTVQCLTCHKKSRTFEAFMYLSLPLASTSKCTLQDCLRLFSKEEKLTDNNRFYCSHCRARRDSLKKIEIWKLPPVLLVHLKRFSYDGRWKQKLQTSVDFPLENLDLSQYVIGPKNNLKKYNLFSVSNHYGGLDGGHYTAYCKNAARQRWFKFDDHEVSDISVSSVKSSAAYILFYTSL
# In short: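 His-tagged catalytic domain expressed in E. coli and purified by Ni affinity and gel filtration. Assayed in 50 mM HEPES pH 7.6 or 40 mM Tris pH 7.4 buffer with 1 mM DTT; compound added just before Ub-AMC or Ub-Rho substrate, fluorescence kinetics followed 20 or 30 min. Median of duplicates.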
# LNCaP cells = experiment: Cytotoxicity assay (PrestoBlue cell viability), LNCaP; assay type: cell-based; conditions: Homo sapiens, 48 hours treatment
# Protocol: as §1, §3, §2
# HEK293 cells = experiment: Cytotoxicity assay (PrestoBlue cell viability), HEK293; assay type: cell-based; conditions: Homo sapiens, 48 hours treatment
# Protocol: as §1, §3, §2
# MESSA DX5 cells = experiment: Cytotoxicity assay (PrestoBlue cell viability), MESSA DX5; assay type: cell-based, human; conditions: Homo sapiens, MES-SA/Dx5; 48 hours treatment; chemoresistant line
# Protocol: as §1, §3, §2
# [2] = target: T2, USP2^CD (purified catalytic domain of USP2) (Homo sapiens, UniProt O75604); experiment: Inhibition of purified USP2^CD enzymatic activity (Ub-AMC or Ub-Rho substrate); assay type: biochemical; conditions: for inhibition at 0.01 µM: 0.01 μM compound; for inhibition at 0.05 µM: 0.05 μM compound; for inhibition at 0.1 µM: 0.1 μM compound; for inhibition at 0.5 µM: 0.5 μM compound; for inhibition at 1 µM: 1 μM compound; for inhibition at 5 µM: 5 μM compound; for inhibition at 10 µM: 10 μM compound; for inhibition at 25 µM: 25 μM compound; for inhibition at 50 µM: 50 μM compound; for IC50: read-out: IC50 USP2 CD
# T2 construct: The purified catalytic domain of USP2 (USP2^CD, in-house purified); His; made in house; host or cells: E. coli BL21 Gold
# T2 sequence (O75604 267-599 limits assumed): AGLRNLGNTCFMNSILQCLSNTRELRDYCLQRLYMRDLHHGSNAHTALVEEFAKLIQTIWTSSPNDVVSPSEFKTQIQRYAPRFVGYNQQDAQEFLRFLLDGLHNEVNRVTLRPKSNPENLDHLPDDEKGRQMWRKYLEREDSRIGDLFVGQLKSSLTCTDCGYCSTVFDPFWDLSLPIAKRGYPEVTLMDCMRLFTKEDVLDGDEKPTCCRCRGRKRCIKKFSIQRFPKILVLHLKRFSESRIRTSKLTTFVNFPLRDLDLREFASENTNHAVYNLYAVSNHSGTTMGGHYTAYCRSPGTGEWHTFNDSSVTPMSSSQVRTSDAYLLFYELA
# In short: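 His-tagged catalytic domain expressed in E. coli and Ni/gel-filtration purified; assayed in 50 mM HEPES pH 7.6 or 40 mM Tris pH 7.4 with 1 mM DTT. Compound added just before Ub-AMC or Ub-Rho substrate; fluorescence from hydrolysis followed over 20 or 30 min, median of duplicates.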
# PC-3 cells = experiment: Cytotoxicity assay (PrestoBlue cell viability), PC-3; assay type: cell-based; conditions: Homo sapiens, 48 hours treatment
# Protocol: as §1, §3, §2
# [3] = Ub-AMC substrate at 1 μM, Table 2b
# [4] = Ub-Rhodamine substrate at 0.1 μM, Table 2c
smiles,measurement,setting,value
CCS(=O)(=O)Cc1nc2c(nc1CS(=O)(=O)CC)C(=O)c1ccccc1C2=O [VIN6075],EC50,H1975 cells,> 3000 nM
same,EC50,MESSA cells,3000 nM
same,inhibition at 0.01 µM,[1]; Table 1d,-15%
same,inhibition at 0.05 µM,[1]; Table 1d,24%
same,inhibition at 0.1 µM,[1]; Table 1d,12%
same,inhibition at 0.5 µM,[1]; Table 1d,51%
same,inhibition at 1 µM,[1]; Table 1b,85%
same,inhibition at 1 µM,[1]; Table 1d,86%
same,inhibition at 5 µM,[1]; Table 1b,102%
same,inhibition at 5 µM,[1]; Table 1d,104%
same,inhibition at 10 µM,[1]; Table 1d,110%
same,inhibition at 25 µM,[1]; Table 1b,104%
same,inhibition at 50 µM,[1]; Table 1b,106%
same,IC50,[1]; [3],500 nM
same,IC50,[1]; [4],80 nM
same,EC50,LNCaP cells,2800 nM
same,EC50,HEK293 cells,> 3000 nM
same,EC50,MESSA DX5 cells,> 3000 nM
same,inhibition at 0.01 µM,[2]; Table 1c,11%
same,inhibition at 0.05 µM,[2]; Table 1c,6%
same,inhibition at 0.1 µM,[2]; Table 1c,-26%
same,inhibition at 0.5 µM,[2]; Table 1c,2%
same,inhibition at 1 µM,[2]; Table 1b,51%
same,inhibition at 1 µM,[2]; Table 1c,31%
same,inhibition at 5 µM,[2]; Table 1b,75%
same,inhibition at 5 µM,[2]; Table 1c,51%
same,inhibition at 10 µM,[2]; Table 1c,57%
same,inhibition at 25 µM,[2]; Table 1b,99%
same,inhibition at 50 µM,[2]; Table 1b,100%
same,IC50,[2]; [3],5000 nM
same,IC50,[2]; [4],600 nM
same,EC50,PC-3 cells,3000 nM
COc1ccc(S(=O)(=O)Cc2nc3c(nc2CS(=O)(=O)c2ccc(OC)c(OC)c2)C(=O)c2ccccc2C3=O)cc1OC [OVM18],EC50,H1975 cells,> 3000 nM
same,EC50,MESSA cells,1300 nM
same,inhibition at 0.01 µM,[1]; Table 1d,2%
same,inhibition at 0.05 µM,[1]; Table 1d,21%
same,inhibition at 0.1 µM,[1]; Table 1d,-8%
same,inhibition at 0.5 µM,[1]; Table 1d,63%
same,inhibition at 1 µM,[1]; Table 1b,100%
same,inhibition at 1 µM,[1]; Table 1d,83%
same,inhibition at 5 µM,[1]; Table 1b,103%
same,inhibition at 5 µM,[1]; Table 1d,77%
same,inhibition at 10 µM,[1]; Table 1d,71%
same,inhibition at 25 µM,[1]; Table 1b,96%
same,inhibition at 50 µM,[1]; Table 1b,101%
same,IC50,[1]; [3],500 nM
same,EC50,LNCaP cells,2100 nM
same,EC50,HEK293 cells,2500 nM
same,EC50,MESSA DX5 cells,2500 nM
same,inhibition at 0.01 µM,[2]; Table 1c,-19%
same,inhibition at 0.05 µM,[2]; Table 1c,-3%
same,inhibition at 0.1 µM,[2]; Table 1c,19%
same,inhibition at 0.5 µM,[2]; Table 1c,-20%
same,inhibition at 1 µM,[2]; Table 1b,53%
same,inhibition at 1 µM,[2]; Table 1c,44%
same,inhibition at 5 µM,[2]; Table 1c,17%
same,inhibition at 10 µM,[2]; Table 1c,9%
same,inhibition at 25 µM,[2]; Table 1b,53%
same,inhibition at 50 µM,[2]; Table 1b,63%
same,IC50,[2]; [3],> 10000 nM
same,EC50,PC-3 cells,3000 nM
